Columns and labels:
PI3K beta = molecular target: T1, PI3K beta (Homo sapiens, UniProt P42338); experiment: PI3K beta kinase assay (Kinase-Glo luminescence); format: biochemical
T1 construct: for the full-length p110-b subunit are generated and fused by overlapping PCR; p85(iSH2) fusion partner (see partner chain) (N); His tag (C); made in house; host or cells: baculovirus; Tn5 (Trichoplusia ni) or TiniPro insect cells
Procedure, shortened: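 IC50 is derived by four-parameter logistic curve fitting of Kinase-Glo luminescence, which measures ATP left after a 60 min room-temperature reaction. Conditions are 25 nM His-tagged p85(iSH2)-p110β, 1 μM ATP and 10 μg/mL bovine liver phosphatidylinositol.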

[1] = tested on: S6 Ribosomal Protein phosphorylation Ser235/236 in TSC1 null mouse embryo fibroblast (MEF) cells; experiment: Reverse protein array assay, S6 Ribosomal Protein phosphorylation Ser235/236 in TSC1 null MEF cells; format: cell-based; settings: 1 h, pS6 ribosomal protein Ser235/236, 60 minutes incubation, read-out: p-S6 IC50
Procedure, shortened: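 TSC1−/− MEFs, seeded and held ≥20 h at 37 °C/5% CO2, were exposed to 8-step serial compound dilutions (0.02% DMSO final; DMSO vehicle control) for 60 min at 37 °C. Cells were then lysed on ice for 10 min and lysates spotted onto reverse protein array chips.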

[2] = tested on: PKB Ser473 phosphorylation in Rat1-myr-HA-p110 alpha cells; experiment: Reverse protein array assay, PKB Ser473 phosphorylation in Rat1-myr-p110 alpha cells; format: cell-based; settings: 0.5 h, pAkt Ser473, 30 minutes compound incubation, read-out: p-PKB IC50
Procedure, shortened: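 Compound exposure lasted 30 min in Rat1 cells bearing membrane-targeted HA-p110 isoforms, using 8 serial concentrations. Arrayed lysates, each spotted at four dilutions, gave relative fluorescence signals for phospho-Ser473 PKB.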

T1 sequence (P42338 with tags, fused parts or gaps limits assumed): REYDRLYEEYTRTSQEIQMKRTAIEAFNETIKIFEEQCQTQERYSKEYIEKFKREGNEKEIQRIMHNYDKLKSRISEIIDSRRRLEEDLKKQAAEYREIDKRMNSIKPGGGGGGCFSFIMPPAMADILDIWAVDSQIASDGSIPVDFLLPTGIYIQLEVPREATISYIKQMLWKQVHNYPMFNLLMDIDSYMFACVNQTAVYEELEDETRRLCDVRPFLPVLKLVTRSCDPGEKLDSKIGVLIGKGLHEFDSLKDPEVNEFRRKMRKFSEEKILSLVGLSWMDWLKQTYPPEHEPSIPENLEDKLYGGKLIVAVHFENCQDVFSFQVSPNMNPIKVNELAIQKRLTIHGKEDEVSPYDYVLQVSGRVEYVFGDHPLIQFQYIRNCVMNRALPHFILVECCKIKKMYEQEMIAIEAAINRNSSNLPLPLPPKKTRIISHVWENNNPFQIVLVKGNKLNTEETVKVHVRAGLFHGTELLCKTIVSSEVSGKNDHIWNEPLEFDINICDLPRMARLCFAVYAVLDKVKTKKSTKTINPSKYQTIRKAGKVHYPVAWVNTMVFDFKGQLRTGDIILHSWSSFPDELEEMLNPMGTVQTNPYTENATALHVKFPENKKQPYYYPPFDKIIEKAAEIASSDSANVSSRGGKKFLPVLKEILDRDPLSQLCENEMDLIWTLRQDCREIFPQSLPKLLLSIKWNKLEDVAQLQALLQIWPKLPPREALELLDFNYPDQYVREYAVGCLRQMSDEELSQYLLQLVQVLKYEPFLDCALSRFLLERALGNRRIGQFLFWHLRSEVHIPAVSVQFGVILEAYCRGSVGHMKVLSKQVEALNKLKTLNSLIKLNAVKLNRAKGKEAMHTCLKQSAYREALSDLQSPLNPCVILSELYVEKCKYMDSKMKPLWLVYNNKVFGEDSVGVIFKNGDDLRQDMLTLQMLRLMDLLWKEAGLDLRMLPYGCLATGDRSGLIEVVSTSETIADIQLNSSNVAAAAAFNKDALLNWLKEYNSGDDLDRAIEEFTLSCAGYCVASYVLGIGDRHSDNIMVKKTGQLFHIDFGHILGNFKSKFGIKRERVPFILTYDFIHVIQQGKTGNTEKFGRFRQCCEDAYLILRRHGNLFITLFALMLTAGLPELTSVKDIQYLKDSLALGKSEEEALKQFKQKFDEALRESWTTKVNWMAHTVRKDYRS

IC50 (PI3K beta) | IC50 [2] | Structure (SMILES) | IC50 [1]
13 nM | 108 nM | Cc1nn(C)cc1-n1c(=O)n(C)c2cnc3ccc(-c4cncc(C(C)O)c4)cc3c21 (racemic) [Example 217, (rac)-1-(1,3-Dimethyl-1H-pyrazol-4-yl)-8-[5-(1-hydroxy-ethyl)-pyridin-3-yl]-3-methyl-1,3-dihydro-imidazo[4,5-c]quinolin-2-one] | 10 nM
39 nM | 26 nM | COc1ccc(-c2ccc3ncc4c(c3c2)n(-c2c(C)nn(C)c2C)c(=O)n4C)cc1OC [Example 1.9, 8-(3,4-Dimethoxy-phenyl)-3-methyl-1-(1,3,5-trimethyl-1H-pyrazol-4-yl)-1,3-dihydro-imidazo[4,5-c]quinolin-2-one] | 44 nM
278 nM | 159 nM | COc1ccc(-c2ccc3ncc4c(c3c2)n(-c2ccnn2C)c(=O)n4C)cn1 [Example 2.2, 8-(6-Methoxy-pyridin-3-yl)-3-methyl-1-(2-methyl-2H-pyrazol-3-yl)-1,3-dihydro-imidazo[4,5-c]quinolin-2-one] | 
166 nM | 44 nM | COc1ccc(-c2ccc3ncc4c(c3c2)n(-c2cnn(C)c2C)c(=O)n4C)cn1 [Example 2.9, 1-(1,5-Dimethyl-1H-pyrazol-4-yl)-8-(6-methoxy-pyridin-3-yl)-3-methyl-1,3-dihydro-imidazo[4,5-c]quinolin-2-one] | 27 nM
123 nM | 15 nM | CCOc1ccc(-c2ccc3ncc4c(c3c2)n(-c2cn(C)nc2Cl)c(=O)n4C)cn1 [Example 3.8, 1-(3-Chloro-1-methyl-1H-pyrazol-4-yl)-8-(6-ethoxy-pyridin-3-yl)-3-methyl-1,3-dihydro-imidazo[4,5-c]quinolin-2-one] | 11 nM
733 nM | 53 nM | Cc1c(-n2c(=O)n(C)c3cnc4ccc(-c5ccc(N(C)C)nc5)cc4c32)cnn1C [Example 4.4, 8-(6-Dimethylamino-pyridin-3-yl)-1-(1,5-dimethyl-1H-pyrazol-4-yl)-3-methyl-1,3-dihydro-imidazo[4,5-c]quinolin-2-one] | 10 nM
227 nM | 61 nM | Cc1nn(C(C)C)cc1-n1c(=O)n(C)c2cnc3ccc(-c4cnc(N(C)C)nc4)cc3c21 [Example 6.1, 8-(2-Dimethylamino-pyrimidin-5-yl)-1-(1-isopropyl-3-methyl-1H-pyrazol-4-yl)-3-methyl-1,3-dihydro-imidazo[4,5-c]quinolin-2-one] | 33 nM
86 nM | 50 nM | Cc1nn(C)cc1-n1c(=O)n(C)c2cnc3ccc(-c4cccnc4)cc3c21 [Example 10.2, 1-(1,3-Dimethyl-1H-pyrazol-4-yl)-3-methyl-8-pyridin-3-yl-1,3-dihydro-imidazo[4,5-c]quinolin-2-one] | 24 nM
228 nM | 74 nM | CCn1cc(-n2c(=O)n(C)c3cnc4ccc(-c5ccc(CO)nc5)cc4c32)c(C)n1 [Example 16.1, 1-(1-ethyl-3-methyl-1H-pyrazol-4-yl)-8-(6-hydroxymethyl-pyridin-3-yl)-3-methyl-1,3-dihydro-imidazo[4,5-c]quinolin-2-one] | 33 nM
11 nM | 168 nM | Cc1nn(C)cc1-n1c(=O)n(C)c2cnc3ccc(-c4cncc(S(C)(=O)=O)c4)cc3c21 [Example 22, 1-(1,3-Dimethyl-1H-pyrazol-4-yl)-8-(5-methanesulfonyl-pyridin-3-yl)-3-methyl-1,3-dihydro-imidazo[4,5-c]quinolin-2-one] | 27 nM
578 nM | 90 nM | Cc1nn(CC(=O)N(C)C)c(C)c1-n1c(=O)n(C)c2cnc3ccc(-c4cnc(N)c(C(F)(F)F)c4)cc3c21 [Example 25.2, 2-{4-[8-(6-Amino-5-trifluoromethyl-pyridin-3-yl)-3-methyl-2-oxo-2,3-dihydro-imidazo[4,5-c]quinolin-1-yl]-3,5-dimethyl-pyrazol-1-yl}-N,N-dimethyl-acetamide] | 6 nM
48 nM | 25 nM | Cc1nn(C)c(C)c1-n1c(=O)n(C)c2cnc3ccc(-c4cnc(N)c(C(F)(F)F)c4)cc3c21 [Example 25.3, 8-(6-Amino-5-trifluoromethyl-pyridin-3-yl)-3-methyl-1-(1,3,5-trimethyl-1H-pyrazol-4-yl)-1,3-dihydro-imidazo[4,5-c]quinolin-2-one] | 2 nM
16 nM | < 5 nM | Cc1nn(C(C)C)cc1-n1c(=O)n(C)c2cnc3ccc(-c4cnc(N)c(C(F)(F)F)c4)cc3c21 [Example 25.4, 8-(6-Amino-5-trifluoromethyl-pyridin-3-yl)-1-(1-isopropyl-3-methyl-1H-pyrazol-4-yl)-3-methyl-1,3-dihydro-imidazo[4,5-c]quinolin-2-one] | < 0.5 nM
 | 36 nM | Cc1nn(C)cc1-n1c(=O)n(C)c2cnc3ccc(-c4ccc(OCC5CC5)nc4)cc3c21 [Example 42, 8-(6-Cyclopropylmethoxy-pyridin-3-yl)-1-(1,3-dimethyl-1H-pyrazol-4-yl)-3-methyl-1,3-dihydro-imidazo[4,5-c]quinolin-2-one] | 3 nM
 | 72 nM | Cc1nn(C)cc1-n1c(=O)n(C)c2cnc3ccc(-c4ccc5c(c4)CCN5C)cc3c21 [Example 50, 1-(1,3-Dimethyl-1H-pyrazol-4-yl)-3-methyl-8-(1-methyl-2,3-dihydro-1H-indol-5-yl)-1,3-dihydro-imidazo[4,5-c]quinolin-2-one] | 91 nM
 | 14 nM | Cc1nn(CC(=O)N(C)C)c(C)c1-n1c(=O)n(C)c2cnc3ccc(-c4ccc(-n5cccn5)cc4)cc3c21 [Example 51.4, 2-{3,5-Dimethyl-4-[3-methyl-2-oxo-8-(4-pyrazol-1-yl-phenyl)-2,3-dihydro-imidazo[4,5-c]quinolin-1-yl]pyrazol-1-yl}-N,N-dimethyl-acetamide] | 11 nM
37 nM | 206 nM | Cc1ncc(-c2ccc3ncc4c(c3c2)n(-c2cn(C)nc2C)c(=O)n4C)cc1N(C)S(C)(=O)=O [Example 75, N-{5-[1-(1,3-Dimethyl-1H-pyrazol-4-yl)-3-methyl-2-oxo-2,3-dihydro-1H-imidazo[4,5-c]quinolin-8-yl]-2-methyl-pyridin-3-yl}-N-methyl-methanesulfonamide] | 
 | 197 nM | Cc1nn(C)cc1-n1c(=O)n(C)c2cnc3ccc(-c4cccc(OC(C)C)c4F)cc3c21 [Example 83, 1-(1,3-Dimethyl-1H-pyrazol-4-yl)-8-(2-fluoro-3-isopropoxy-phenyl)-3-methyl-1,3-dihydro-imidazo[4,5-c]quinolin-2-one] | 38 nM
21 nM | < 5 nM | CCNc1cc(-c2ccc3ncc4c(c3c2)n(-c2cn(C)nc2C)c(=O)n4C)cnc1C [Example 87.1, 1-(1,3-Dimethyl-1H-pyrazol-4-yl)-8-(5-ethylamino-6-methyl-pyridin-3-yl)-3-methyl-1,3-dihydro-imidazo[4,5-c]quinolin-2-one] | 
 | 71 nM | CCn1cc(-n2c(=O)n(C)c3cnc4ccc(-c5ccc(COC)nc5)cc4c32)c(C)n1 [Example 104, 1-(1-Ethyl-3-methyl-1H-pyrazol-4-yl)-8-(6-methoxymethyl-pyridin-3-yl)-3-methyl-1,3-dihydro-imidazo[4,5-c]quinolin-2-one] | 39 nM
 | 41 nM | CCOc1ccc(-c2ccc3ncc4c(c3c2)n(-c2cn(CCOC)nc2C)c(=O)n4C)cn1 [Example 131, 8-(6-Ethoxy-pyridin-3-yl)-1-[1-(2-methoxy-ethyl)-3-methyl-1H-pyrazol-4-yl]-3-methyl-1,3-dihydro-imidazo[4,5-c]quinolin-2-one] | 5 nM
 | 59 nM | Cc1cc(-n2c(=O)n(C)c3cnc4ccc(-c5cncc(N6CCOCC6)c5)cc4c32)n(C)n1 [Example 175.2, 1-(2,5-Dimethyl-2H-pyrazol-3-yl)-3-methyl-8-(5-morpholin-4-yl-pyridin-3-yl)-1,3-dihydro-imidazo[4,5-c]quinolin-2-one] | 32 nM
42 nM | < 5 nM | CCn1cc(-n2c(=O)n(C)c3cnc4ccc(-c5cncc(NC)c5)cc4c32)c(C)n1 [Example 180.1, 1-(1-Ethyl-3-methyl-1H-pyrazol-4-yl)-3-methyl-8-(5-methylamino-pyridin-3-yl)-1,3-dihydro-imidazo[4,5-c]quinolin-2-one] | 
71 nM |  | COCCNC(=O)c1cc(-c2ccc3ncc4c(c3c2)n(-c2cn(C)nc2C)c(=O)n4C)cnc1N [Example 226, 2-Amino-5-[1-(1,3-dimethyl-1H-pyrazol-4-yl)-3-methyl-2-oxo-2,3-dihydro-1H-imidazo[4,5-c]quinolin-8-yl]-N-(2-methoxy-ethyl)-nicotinamide] | 7 nM
 | 28 nM | CCN(CC)C(=O)Cn1cc(-n2c(=O)n(C)c3cnc4ccc(-c5cnc(N6CCCC6)nc5)cc4c32)c(C)n1 [Example 247.1, N,N-Diethyl-2-{3-methyl-4-[3-methyl-2-oxo-8-(2-pyrrolidin-1-yl-pyrimidin-5-yl)-2,3-dihydro-imidazo[4,5-c]quinolin-1-yl]-pyrazol-1-yl}-acetamide] | 3 nM
